Data from patent US5871779A, “Treatment of arthropathies with vanadate compounds or analogues thereof” (Mount Sinai Hospital Corporation, priority 1996, dated 1999).

Columns and labels:
[1] = tolerability of BMOV and NAC in arthritic rats; format: in vivo
Protocol: Rats with definite arthritis on Day 10 post immunization were randomized into two groups. Control rats (n=8) received only NAC at a dose of 100 mg/kg/day s.c. NAC was prepared as a 3% aqueous solution. The experimental group (n=9) received NAC at 100 mg/kg/day s.c., as well as BMOV subcutaneously at 10 mg/kg/day. BMOV was solubilized in a 5% dextrose solution at 50° C.

[2] = test system: MDAY-D2 tumor; experiment: MDAY-D2 tumor growth in vivo, orthovanadate, vanadyl sulphate, vanadyl hydroperoxide (Example 6B); set-up: species or system mice
From the text: In order to examine the ability of vanadyl compounds to reduce tumor formation, growth and metastases, a specific animal model which allows investigation of all of these processes in the same animal was chosen. This model involves the injection of a metastatic haematopoietic cell line, MDAY-D2, into mice subcutaneously. These cells form a tumor at the site of injection and its size can be easily determined. In addition, these cells metastasize to the liver and metastases can be detected histologically after day 17 to 19. This model provides a very sensitive and reproducible approach to investigate the effect of vanadyl compounds on tumor growth and metastases.
In a separate experiment using the same animal model, the effect of orthovanadate, vanadyl sulphate and vanadyl hydroperoxide administration on tumor growth in vivo was examined. On Day 1, 20 mice were injected with 2×10^5 MDAY-D2 cell subcutaneously. The mice were divided into four groups of five mice. At day 5, the animals were injected subcutaneously with 50 μl of water alone or containing 10 mg/ml of orthovanadate, 10 mg/ml of vanadyl sulphate, or 10 mg/ml of vanadyl hydroperoxide. This treatment was continued daily for 16 days. At day 21, the mice were sacrificed and the tumors dissected and weighed.

[3] = test system: tumor cell lines; experiment: cell death of proliferating tumor cell lines; format: cell-based
Protocol: Fos and jun activity are also required for cellular proliferation in many tumor cell lines. Accordingly, the effect of orthovanadate on adherent cells and cell suspensions were examined. MDAY-D2 (a mouse lymphoid cell line grown in suspension) and HTB14 cells (an adherent human primary astrocytoma cell line) were incubated in media containing 0-50 μM orthovanadate for 48 hours. The cells were harvested and the number of viable cells determined.

Row | Compound | diarrhea ([1]; BMOV 10 mg/kg/day) | diarrhea ([1]; BMOV 15 mg/kg/day from Day 11) | detectable tumors ([2]; day 21) | animal deaths ([2]; groups of five, 10 mg/ml, 50 μl daily s.c.) | efficacy in reducing tumor growth ([2]; mouse, in vivo) | cell death ([3]; 0-50 μM) | cell death complete ([3]; within 3 days of continuous treatment)
1 | Cc1occc(=O)c1[O-].Cc1occc(=O)c1[O-].[O]=[V+2] [BMOV, bis(methylmaltolato) oxovanadium (IV)] | not observed | minor diarrhea | – | – | – | – | –
2 | [Na+].[Na+].[Na+].[O]=[V]([O-])([O-])[O-] [orthovanadate, sodium orthovanadate] | – | – | one mouse did not have detectable tumors | One animal died | most efficacy | concentration dependent increase in cell death | over 98%
